This note sets out measurements from patent US6537522B1, “Neuroprobes for mapping monoamine reuptake sites” (Amersham PLC, priority 1992, dated 2003).

As usually defined, the Ki is a measure of affinity in units of concentration, obtained from inhibition or displacement. As usually defined, the IC50 is the concentration at which inhibition is half-maximal.

Where two headings read alike, the source gives them in different places.

One series deals with dopamine reuptake sites (Papio anubis, UniProt A0A096MN61). The series is described as follows: displacement of [3H]CFT binding in primate striatum tissue homogenates. Further details: species or system baboon. The note with it: mean ± SEM (n). The source says: Values represent means±SEM (of n experiments).
On the technique in general: In a radioligand displacement assay an active substance lowers the binding of a labelled ligand.

The next series deals with T1, 5-HTT (5-HT transporter) (Rattus norvegicus, UniProt P31652).
T1 construct: or frontoparietal cerebral cortex (for 5-HTT and NET); from tissue; host or cells: rat brain frontoparietal cerebral cortex, crude membrane fraction
Briefly: 5-HTT assay, [3H]paroxetine binding, rat frontoparietal cerebral cortex membranes. On the procedure:
(§1) N-phthalimidopropyl-β-CIT (see Example 10) was analyzed as follows. Stock solutions (1 mM) of test agents were made in 95% ethanol/DMSO (1/1, v/v) and stored at −5° C. until used by diluting in a large excess of each assay buffer. Agents are tested at six concentrations in duplicate, with a crude membrane fraction of homogenates of rat brain corpus striatum (for DAT assays) in Tris-citrate buffer (pH 7.4) containing Na^+ ([…]) and Mg^2+ (4 mM) or frontoparietal cerebral cortex (for 5-HTT and NET) in 50 mM Tris-HCl buffer (pH 7.4) containing Na^+ ([…]) and K^+ (5 mM) following methods reported by Neumeyer et al., J. Med. Chem. 37, 1558-1561 (1991), the whole of which is incorporated by reference herein.

In the next series the target is T2, serotonin reuptake sites (Rattus norvegicus, UniProt P31652).
T2 construct: homogenates prepared from rat cortical membranes; from tissue; host or cells: rat cortical membranes
The series is described as follows: displacement of [3H]paroxetine binding in rat cortical membrane homogenates. The note with it: for displacement of [3H]paroxetine Hill slope (nH): mean ± SEM (n).

Series [1] deals with dopamine and serotonin reuptake sites. The conditions noted are these: within 60-120 min. On the procedure: Six SPECT experiments were performed in four female baboons (10 kg Papio anubis) under isoflurane anesthesia. […] Data were decay-corrected to the time of injection.
Series [2] deals with T3, NET (norepinephrine transporter) (Rattus norvegicus, UniProt Q63380).
T3 construct: or frontoparietal cerebral cortex (for 5-HTT and NET); from tissue; host or cells: rat brain frontoparietal cerebral cortex, crude membrane fraction
Briefly: NET assay, [3H]nisoxetine binding, rat frontoparietal cerebral cortex membranes. On the procedure:
as §1

The subject of series [3] is dopamine and serotonin reuptake sites. The series is described as follows: SPECT regional brain activity after i.v. [123I]-β-CIT (five experiments). It is filed as in vivo, baboon (Papio anubis). The source says: Data were decay corrected to time of injection.
The test system is the same in series [4]. The series is described as follows: SPECT regional brain activity after injection of [123I]-β-CIT (six experiments). The series is classed as in vivo, baboon (Papio anubis). On the procedure:
The final product was formulated in 6 ml sterile saline containing 5-10% ethanol.
Data were decay-corrected to the time of injection.
The highest activities were found in the striatal region and reached peak levels at 179±9 min (n=6) post injection (p.i.) (FIG. 2). Striatal activity was monitored in two animals for an additional 190 and […] post peak values.

The nature of series [5]: whole body scanning, thyroid uptake (in vivo deiodination). The conditions noted are these: indicative of slow in vivo deiodination. The source says:
The majority of striatal activity was associated with dopamine reuptake sites, and the majority of midbrain activity was associated with serotonin reuptake sites, which is consistent with the densities of these monoamine transporters measured in postmortem primate brains. Brain washout of activity was relatively slow, in part because of the high affinities of β-CIT for the monoamine transporters.

In series [6] the target is T4, DAT (dopamine transporter) (Rattus norvegicus, UniProt P23977).
T4 construct: a crude membrane fraction of homogenates of rat brain corpus striatum (for DAT assays); from tissue; host or cells: rat brain corpus striatum, crude membrane fraction
The series is described as follows: DAT assay, [3H]GBR-12935 binding, rat brain corpus striatum membranes. The conditions noted are these: for selectivity: DAT vs 5-HTT / selectivity: DAT vs NET: ratio of Ki values. Here is the method:
as §1

The test system of series [7] is dopamine and serotonin reuptake sites. The conditions noted are these: 3 μmol/kg IV at 200 min pi, during 100 min after injection.
Description: With reference to FIG. 4, five SPECT (single photon emission computer tomography) experiments were performed with four female baboons (Papio anubis, 10-12 kg) under isoflurane anesthesia. […] Serial 1-2 min images were reconstructed assuming uniform attenuation equal to that of water in an ellipse drawn around the brain. Data were decay corrected to time of injection.
Activity is expressed in arbitrary units known from phantom studies to be linear with radioactive concentrations.
Where [8] appears, read: 0.4 μmol/kg i.v. at 180 min p.i.
Setting [9] is: at time of peak striatal uptake, n=6.

T3 sequence (Q63380 1-617): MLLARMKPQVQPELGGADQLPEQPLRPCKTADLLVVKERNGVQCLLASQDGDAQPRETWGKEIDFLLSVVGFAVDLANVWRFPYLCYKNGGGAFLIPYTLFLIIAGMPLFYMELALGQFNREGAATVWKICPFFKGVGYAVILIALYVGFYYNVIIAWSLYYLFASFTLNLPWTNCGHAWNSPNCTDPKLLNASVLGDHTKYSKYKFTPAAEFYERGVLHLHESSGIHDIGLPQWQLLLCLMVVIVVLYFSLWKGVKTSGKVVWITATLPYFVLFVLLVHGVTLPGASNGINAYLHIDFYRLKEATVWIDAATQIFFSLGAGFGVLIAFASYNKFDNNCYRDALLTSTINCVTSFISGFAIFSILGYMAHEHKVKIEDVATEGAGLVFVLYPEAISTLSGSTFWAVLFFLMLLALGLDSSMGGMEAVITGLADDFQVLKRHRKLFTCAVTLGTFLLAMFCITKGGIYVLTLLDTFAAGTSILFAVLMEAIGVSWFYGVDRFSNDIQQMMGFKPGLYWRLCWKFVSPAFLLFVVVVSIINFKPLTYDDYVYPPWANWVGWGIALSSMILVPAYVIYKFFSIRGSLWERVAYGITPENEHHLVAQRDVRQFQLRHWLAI
T1 sequence (P31652 whole entry): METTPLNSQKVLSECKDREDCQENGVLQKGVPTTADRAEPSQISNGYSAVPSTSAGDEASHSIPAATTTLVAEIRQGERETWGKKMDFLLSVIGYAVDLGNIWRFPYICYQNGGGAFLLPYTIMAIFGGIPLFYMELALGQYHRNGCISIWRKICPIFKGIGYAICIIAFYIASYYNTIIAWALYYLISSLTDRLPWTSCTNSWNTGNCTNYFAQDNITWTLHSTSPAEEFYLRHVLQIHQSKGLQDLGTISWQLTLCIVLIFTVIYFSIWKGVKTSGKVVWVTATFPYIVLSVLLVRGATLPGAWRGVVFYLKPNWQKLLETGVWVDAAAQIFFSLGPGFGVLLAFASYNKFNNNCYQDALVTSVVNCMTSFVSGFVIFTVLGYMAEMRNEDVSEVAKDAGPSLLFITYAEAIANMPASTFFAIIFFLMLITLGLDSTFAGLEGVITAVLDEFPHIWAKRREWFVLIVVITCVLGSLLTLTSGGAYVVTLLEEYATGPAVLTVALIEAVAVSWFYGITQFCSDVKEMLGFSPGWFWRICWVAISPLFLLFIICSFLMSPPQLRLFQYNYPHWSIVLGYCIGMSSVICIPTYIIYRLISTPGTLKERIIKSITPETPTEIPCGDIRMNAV
T2 sequence (P31652 whole entry): as above
Chain of dopamine reuptake sites (A0A096MN61 1-620): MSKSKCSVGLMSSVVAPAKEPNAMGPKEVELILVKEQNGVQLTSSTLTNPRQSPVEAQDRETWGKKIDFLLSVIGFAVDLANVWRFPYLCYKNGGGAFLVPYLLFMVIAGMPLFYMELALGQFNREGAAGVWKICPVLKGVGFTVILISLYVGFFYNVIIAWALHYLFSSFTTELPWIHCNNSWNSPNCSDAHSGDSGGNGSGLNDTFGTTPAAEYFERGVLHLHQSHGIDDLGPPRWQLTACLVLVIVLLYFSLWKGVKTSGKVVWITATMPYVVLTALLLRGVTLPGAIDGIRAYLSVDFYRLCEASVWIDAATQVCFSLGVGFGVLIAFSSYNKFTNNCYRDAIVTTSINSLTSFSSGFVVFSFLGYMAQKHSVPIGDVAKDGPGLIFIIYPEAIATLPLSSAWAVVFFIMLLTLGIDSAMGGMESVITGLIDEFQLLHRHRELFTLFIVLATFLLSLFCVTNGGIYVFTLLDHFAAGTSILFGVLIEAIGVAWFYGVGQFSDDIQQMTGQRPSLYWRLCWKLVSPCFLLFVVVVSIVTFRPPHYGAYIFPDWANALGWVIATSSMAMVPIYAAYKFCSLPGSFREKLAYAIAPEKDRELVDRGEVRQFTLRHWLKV
T4 sequence (P23977 whole entry): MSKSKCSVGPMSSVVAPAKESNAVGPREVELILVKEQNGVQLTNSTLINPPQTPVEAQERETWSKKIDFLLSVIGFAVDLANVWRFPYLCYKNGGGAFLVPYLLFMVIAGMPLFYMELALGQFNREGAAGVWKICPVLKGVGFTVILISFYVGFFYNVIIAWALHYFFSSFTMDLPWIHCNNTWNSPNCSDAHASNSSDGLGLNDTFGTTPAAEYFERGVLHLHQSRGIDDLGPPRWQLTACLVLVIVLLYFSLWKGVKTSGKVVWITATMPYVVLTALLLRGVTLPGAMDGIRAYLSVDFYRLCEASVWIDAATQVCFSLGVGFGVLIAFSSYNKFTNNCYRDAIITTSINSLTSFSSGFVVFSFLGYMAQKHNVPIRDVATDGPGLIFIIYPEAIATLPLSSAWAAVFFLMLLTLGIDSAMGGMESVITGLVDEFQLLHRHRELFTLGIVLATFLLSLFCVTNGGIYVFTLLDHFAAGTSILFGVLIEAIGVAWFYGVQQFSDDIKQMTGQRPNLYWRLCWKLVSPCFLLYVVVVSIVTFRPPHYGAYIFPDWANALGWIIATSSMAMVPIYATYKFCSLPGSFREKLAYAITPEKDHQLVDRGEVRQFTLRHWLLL

Regarding `COC(=O)[C@H]1[C@@H](c2ccc(F)cc2)C[C@@H]2CC[C@H]1N2C` [compound 2, 2β-carbomethoxy-3β-(4-fluorophenyl)tropane, reference compound], the “displacement of [3H]CFT Hill slope (nH)” value on dopamine reuptake sites is on record as 0.75 ± 0.01 (3). The compound further yielded a Ki on 5-HTT (5-HT transporter) of 181 ± 21 nM. At serotonin reuptake sites, this compound had an IC50 of 479 ± 59 nM. Also, the “displacement of [3H]paroxetine Hill slope (nH)” value at serotonin reuptake sites (rat cortical membranes) is 1.34 ± 0.22 (3). Further, in series [1] (setting [8]), the “displacement of midbrain [123I]-β-CIT levels” value came out at 72% and the “displacement of striatal [123I]-β-CIT levels” value was 57%. Moreover, in [1] (2.0 μmol/kg at 298 min p.i.), the “cumulative displacement of midbrain [123I]-β-CIT levels” value was determined as 91% and the “cumulative displacement of striatal [123I]-β-CIT levels” value amounted to 83%. In series [2], the Ki came to 635 ± 110 nM.

With `COC(=O)C1C(c2ccc([123I])cc2)CC2CCC1N2C` (stereo not drawn) [[^123I]-β-CIT, [^123I]-2-β-Carbomethoxy-3-β-(4-iodophenyl)tropane], in series [3] (at time of striatal peak), the “striatal to cerebellar ratio” value amounted to 9.8±1.6. Besides, the “decrease of striatal activity from striatal peak to end of experiment” value in series [3] (control animal followed an additional 200 min) is listed as 0%. Also, the “decrease of striatal activity from striatal peak to end of experiment” value in series [3] (control animal followed an additional 260 min) is reported as 12%. Besides, the “time of peak midbrain levels pi” value in [3] (midbrain, n=5) was 43 ± 5 min. Further, in series [3] (striatal region, mean ± SEM), the “time of peak striatal uptake postinjection” value was determined as 154 ± 19 min. In addition, in series [4] (setting [9]), the “ratio of regional brain activity, cerebellum (striatum 100%)” value amounted to 10.0±1.5%; the “ratio of regional brain activity, frontal lobe (striatum 100%)” value worked out at 10.3±1.0%; the “ratio of regional brain activity, hypothalamus (striatum 100%)” value amounted to 38.1±5.2%; the “ratio of regional brain activity, occipital lobe (striatum 100%)” value was determined as 13.5±0.8%. The “ratio of regional brain activity, temporo-parietal lobes (striatum 100%)” value in series [4] (setting [9]) came to 14.3±2.0%. For the same compound, in series [4] (midbrain, n=3), the “washout of midbrain activity t½” value was determined as 4.9 ± 0.983 h. For the same compound, in series [4] (midbrain, n=6), the “time of peak midbrain activity post injection” value came to 45 ± 16 min. The “striatal activity after peak” value in series [4] (one animal, remaining 190 min of the experiment) is listed as “virtually unchanged”. Further, the “washout of striatal activity t½” value in series [4] (second animal, exponential fit, r=0.92) came to 27 h. Also, the “time of peak striatal activity post injection” value in series [4] (striatum, n=6, mean ± S.E.M.) stood at 179 ± 9 min. In addition, in series [5], the thyroid uptake result is reported as “low”.

As for `COC(=O)[C@H]1[C@@H](c2ccc(I)cc2)C[C@@H]2CC[C@H]1N2C` [compound 3a, 2β-carbomethoxy-3β-(4-iodophenyl)tropane], on dopamine reuptake sites, the “displacement of [3H]CFT Hill slope (nH)” value was 0.79 ± 0.04 (3). In addition, the inhibitory constant (Ki) on 5-HTT (5-HT transporter) was determined as 0.46 ± 0.06 nM. The half-maximal inhibitory concentration (IC50) at serotonin reuptake sites was found to be 3.78 ± 0.53 nM. In addition, the “displacement of [3H]paroxetine Hill slope (nH)” value on serotonin reuptake sites (rat cortical membranes) is 0.82 ± 0.08 (6). Besides, in series [6], the affinity corresponds to a Ki of 1.4 ± 0.2 nM, the “selectivity: DAT vs 5-HTT” value is recorded as 0.320 and the “selectivity: DAT vs NET” value is on record as 2.00. Moreover, the Ki in series [2] is 2.8 ± 0.4 nM.

As for `COC(=O)C1C(c2ccc(I)cc2)CC2CCC1N2C` (stereo not drawn) [compound 3b, 2-α-Carbomethoxy-3-β-iodophenyltropane], at dopamine reuptake sites, the “displacement of [3H]CFT Hill slope (nH)” value was 0.70 ± 0.07 (2). The “displacement of [3H]paroxetine Hill slope (nH)” value on serotonin reuptake sites (rat cortical membranes) was 0.73 ± 0.04 (2). Moreover, the IC50 on serotonin reuptake sites (rat cortical membranes, mean ± SEM, read-out: displacement of [3H]paroxetine IC50) worked out at 210 ± 86 nM.

Regarding `COC(=O)[C@H]1[C@@H](c2ccc(I)cc2)C[C@@H]2CC[C@H]1N2CCCN1C(=O)c2ccccc2C1=O` [Example 10, N-phthalimidopropyl-β-CIT], the Ki at 5-HTT (5-HT transporter) ([3H]paroxetine 0.2 nM, rat cerebral cortex, 60 min 20° C., read-out: affinity (Ki) 5-HTT) was found to be 0.59 ± 0.07 nM; in series [6] ([3H]GBR-12935 0.4 nM, rat corpus striatum, 45 min 4° C., read-out: affinity (Ki) DAT) it was 9.1 ± 1.1 nM; in series [2] ([3H]nisoxetine 0.8 nM, rat cerebral cortex, 180 min 4° C., read-out: affinity (Ki) NET), 73.7 ± 11.6 nM. For the same compound, the “selectivity: DAT vs 5-HTT” value in series [6] is 0.065. Also, the “selectivity: DAT vs NET” value in series [6] worked out at 8.10.

As to `CNC1CC(c2ccc(Cl)c(Cl)c2)c2ccccc21` (stereo not drawn) [Lu 19-005, indatraline], the “decrease of striatal [123I]-β-CIT activity” value in [7] was 65%.
